This is an account of results in ChEMBL document CHEMBL1208788 (Bioorg Med Chem Lett, 2010).

What is called IC50 is the concentration needed to halve the response being measured.

Chain of Cannabinoid receptor 1 (P21554 whole entry): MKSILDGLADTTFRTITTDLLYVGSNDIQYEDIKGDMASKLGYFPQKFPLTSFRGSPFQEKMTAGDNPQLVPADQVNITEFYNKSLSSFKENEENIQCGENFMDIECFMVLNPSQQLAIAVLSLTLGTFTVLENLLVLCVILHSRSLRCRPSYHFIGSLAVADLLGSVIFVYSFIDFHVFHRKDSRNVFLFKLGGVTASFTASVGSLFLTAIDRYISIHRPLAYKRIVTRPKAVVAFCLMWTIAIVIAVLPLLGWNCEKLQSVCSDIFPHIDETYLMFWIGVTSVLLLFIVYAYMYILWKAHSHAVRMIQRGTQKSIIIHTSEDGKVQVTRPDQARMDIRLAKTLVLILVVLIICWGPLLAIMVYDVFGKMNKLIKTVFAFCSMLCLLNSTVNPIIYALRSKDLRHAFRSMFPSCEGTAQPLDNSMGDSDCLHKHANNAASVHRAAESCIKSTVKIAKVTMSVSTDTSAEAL

The assay has as its target Cannabinoid receptor 1 (Homo sapiens, UniProt P21554). In words: Displacement of [3H][…] from human recombinant cannabinoid CB1 receptor expressed in CHO cells. It is filed as cell-based. For orientation: Loss of bound radioactivity is the signal in a displacement assay; it reports binding, not function.
Take `CC(C)(Oc1ccc(C(F)(F)F)cn1)C(=O)N1CC(Cc2ccc(Cl)cc2)(c2ccccc2)C1`: the IC50 amounted to 1300 nM.
Consider `C[C@H](NC(=O)C(C)(C)Oc1ccc(C(F)(F)F)cn1)[C@@H](Cc1ccc(Cl)cc1)c1cccc(Br)c1` (racemic), for which the IC50 amounted to 0.59 nM.
In the case of `CC(C)(Oc1ccc(C(F)(F)F)cn1)C(=O)NC(C)(C)[C@@H](Cc1ccc(Cl)cc1)c1cccc(Br)c1` (racemic) it was 22 nM; in that of `CC(C)(Oc1ccc(C(F)(F)F)cn1)C(=O)NCC(C)(Cc1ccc(Cl)cc1)c1cccc(Br)c1` (racemic), 340 nM; in that of `CC(NC(=O)C(C)(C)Oc1ccc(C(F)(F)F)cn1)C(C)(Cc1ccc(Cl)cc1)c1cccc(Br)c1` (racemic), 25 nM.
As for `CC(C)(Oc1ccc(C(F)(F)F)cn1)C(=O)N1CCC(Cc2ccc(Cl)cc2)(c2ccccc2)C1` (racemic), the IC50 came out at 810 nM.
With `CC(C)(Oc1ccc(C(F)(F)F)cn1)C(=O)N1CCCC(Cc2ccc(Cl)cc2)(c2ccccc2)C1` (racemic) the figure was 2000 nM; with `CC(NC(=O)C(C)(C)Oc1ccc(C(F)(F)F)cn1)C(C)(Cc1ccc(Cl)cc1)c1cccc(Br)c1` (stereo in doubt; 5b), 260 nM.
